According to patent US10882860B2, “Treatment of osteoarthritis” (Samumed, LLC, priority 2015, dated 2021):
Like-named read-outs stand apart in the source and are kept apart here.

How the values were obtained:
[1] = parameters: species or system beagle dogs; details: dog, in vivo
Protocol: The local toxicology of Form 1 of the compound of Formula (I) in dogs was studied. The compound of Formula (I) (Form 1) was administered via single or multiple (9 times) intra-articular (IA) injections as a suspension composition in beagle dogs to evaluate local toxicity.
After IA injection, the right stifle joint was histologically evaluated for inflammation, cartilage health, bone density, etc. Toxicology was evaluated immediately after a single or multiple (3 or 9 once-monthly) IA injections.
The NOAEL for the compound of Formula (I) in this study was considered to be 116 μg/knee.

secreted GAG = experiment: Immunosuppression in chondrocytes: GAG content (DMMB); type: cell-based, human; details: cells stimulated with TNF-α and oncostatin M or IL-1β; 72 hours; FIG. 20A
Protocol: Human MSCs were plated in 10 cm dishes in chondrogenic induction medium (Lonza; DMEM, dexamethasone, ascorbate, insulin-transferrin-selenium [ITS supplement], gentamycin-amphotericin [GA-1000], sodium pyruvate, proline and L-glutamine) and treated with TGF-β3 (20 μg/mL) to induce chondrogenic differentiation. Cells from 4 dishes were pooled and re-plated in 24-well plates in Chondrogenic Induction Medium and treated with various concentrations of the compound of Formula (I). 4 hours later, cells were stimulated by adding TNF-α (20 μg/mL)+Oncostatin M ([…]) or IL-1β (10 μg/mL) and incubated at 37° C., 5% CO2 for 72 hours. Chondrocytes were digested with papain (Sigma). GAG content was measured using the dimethylmethylene blue (DMMB) kit (Chondrex). Briefly, the digested chondrocytes were mixed with DMMB in formate buffer and absorbance at 535 nm was measured using Cytation 3 (Biotek). Nitric oxide was measured using Greiss reagent (Promega) according to manufacturer's protocol.

[2] = Dog pharmacokinetics after IA injection (plasma, cartilage, bone, synovial fluid); type: in vivo, beagle dogs; details: for % Recovered / Compound of Formula (I) Concentration, Bone / Compound of Formula (I) Concentration, Cartilage / Total Amount Recovered / concentration at 45 day / concentration at 91 day / concentration at 179 day: dogs, IA suspension
Protocol: In rats and dogs, the pharmacokinetic profile, safety profile, tissue distribution and cartilage regeneration following a single intra-articular (IA) injection of the compound of Formula (I) in the plasma and the knee joint (cartilage and bone) was determined. The compound of Formula (I) (Form 1) was formulated as a suspension composition in 0.5% CMC/0.05% Polysorbate 80 in PBS.
A 350 μL suspension of the compound of Formula (I) (Form 1), formulated as described above, and corresponding to 3 and 30 μg/knee, was injected intra-articularly (IA) into the right and left knees of twelve (12) naïve male beagle dogs. On Day 1, blood was collected at 15 minutes immediately after IA injection and on Days 45, 91 and 179, dogs were sacrificed and blood samples and the knee joints were collected. Plasma and tissue concentrations (bone, cartilage and synovial fluid) were determined using the HPLC-MS/MS bioanalytical method with a dynamic range of […] in plasma or 5.00 to […] in tissue.

[3] = test system: Wnt activity (Sp5-Luc reporter, SW480 colon carcinoma cells); experiment: Sp5-Luc Wnt reporter gene assay; type: cell-based; details: Homo sapiens, FIG. 14
Excerpt: The compound of Formula (I) was screened for Wnt activity. The screening assay is described as follows. Reporter cell lines were generated by stably transducing cancer cell lines (e.g., colon cancer) or primary cells (e.g., IEC-6 intestinal cells) with a lentiviral construct that included a Wnt-responsive promoter driving expression of the firefly luciferase gene.
SW480 colon carcinoma cells were transduced with a lentiviral vector expressing luciferase with a human Sp5 promoter consisting of a sequence of eight TCF/LEF binding sites. SW480 cells stably expressing the Sp5-Luc reporter gene and a hygromycin resistant gene were selected by treatment with 150 μg/mL of hygromycin for 7 days. These stably transduced SW480 cells were expanded in cell culture and used for all further screening activities. […] Following incubation, 20 μL of BrightGlo luminescence reagent (Promega) was added to each well of the 384-well assay plates. The plates were placed on an orbital shaker for 2 min and then luminescence was quantified using the Envision (Perkin Elmer) plate reader. Readings were normalized to DMSO-only treated cells, and normalized activities were utilized for EC50 calculations using the dose-response log (inhibitor) vs. response—variable slope (four parameters) nonlinear regression feature available in GraphPad Prism 5.0 (or Dotmatics).

[4] = dog, up to 30 μg/knee, 179 days

SMILES: CC(C)CC(=O)Nc1cncc(-c2ccc3[nH]nc(-c4nc5c(-c6cccc(F)c6)cncc5[nH]4)c3c2)c1 [compound of Formula (I)]
- NOAEL [1]: 116 μg/knee
- secreted GAG (secreted GAG): reduced
- % of administered dose recovered ([2]; dog, 3 μg/knee, Day 45): 5.1%
- total amount recovered from cartilage and bone tissues from the tibia ([2]; dog, 3 μg/knee, Day 45): 152 ng
- % of administered dose recovered ([2]; dog, 3 μg/knee, Day 91): 0.55%
- total amount recovered from cartilage and bone tissues from the tibia ([2]; dog, 3 μg/knee, Day 91): 16.6 ng
- % of administered dose recovered ([2]; dog, 3 μg/knee, Day 179): 2.5%
- total amount recovered from cartilage and bone tissues from the tibia ([2]; dog, 3 μg/knee, Day 179): 79 ng
- % of administered dose recovered ([2]; dog, 30 μg/knee, Day 45): 16.8%
- total amount recovered from cartilage and bone tissues from the tibia ([2]; dog, 30 μg/knee, Day 45): 5060 ng
- % of administered dose recovered ([2]; dog, 30 μg/knee, Day 91): 7.25%
- total amount recovered from cartilage and bone tissues from the tibia ([2]; dog, 30 μg/knee, Day 91): 2250 ng
- % of administered dose recovered ([2]; dog, 30 μg/knee, Day 179): 7.03%
- total amount recovered from cartilage and bone tissues from the tibia ([2]; dog, 30 μg/knee, Day 179): 2110 ng
- systemic exposure ([2]; dog, up to 30 μg/knee, 15 minutes post-dose): no measurable systemic exposure
- adverse effects from intra-articular administration [2, 4]: no adverse effects
- mortality [2, 4]: no mortality
- % Recovered ([2]; 3 μg/knee, Day 45): 5.1%
- Compound of Formula (I) Concentration, Bone ([2]; 3 μg/knee, Day 45): [22] nM
- Compound of Formula (I) Concentration, Cartilage ([2]; 3 μg/knee, Day 45): [301] nM
- Total Amount Recovered ([2]; 3 μg/knee, Day 45): 152 ng
- % Recovered ([2]; 3 μg/knee, Day 91): 0.55%
- Compound of Formula (I) Concentration, Bone ([2]; 3 μg/knee, Day 91): BQL
- Compound of Formula (I) Concentration, Cartilage ([2]; 3 μg/knee, Day 91): [73] nM
- Total Amount Recovered ([2]; 3 μg/knee, Day 91): 16.6 ng
- % Recovered ([2]; 3 μg/knee, Day 179): 2.6%
- Compound of Formula (I) Concentration, Bone ([2]; 3 μg/knee, Day 179): 12.8 ng/g and [25] nM
- Compound of Formula (I) Concentration, Cartilage ([2]; 3 μg/knee, Day 179): 63.7 ng/g and [126] nM
- Total Amount Recovered ([2]; 3 μg/knee, Day 179): 79.0 ng
- % Recovered ([2]; 30 μg/knee, Day 45): 16.9%
- Compound of Formula (I) Concentration, Bone ([2]; 30 μg/knee, Day 45): [1160] nM
- Compound of Formula (I) Concentration, Cartilage ([2]; 30 μg/knee, Day 45): [8960] nM
- Total Amount Recovered ([2]; 30 μg/knee, Day 45): 5057 ng
- % Recovered ([2]; 30 μg/knee, Day 91): 7.4%
- Compound of Formula (I) Concentration, Bone ([2]; 30 μg/knee, Day 91): [234] nM
- Compound of Formula (I) Concentration, Cartilage ([2]; 30 μg/knee, Day 91): [4609] nM
- Total Amount Recovered ([2]; 30 μg/knee, Day 91): 2175 ng
- % Recovered ([2]; 30 μg/knee, Day 179): 7.0%
- Compound of Formula (I) Concentration, Bone ([2]; 30 μg/knee, Day 179): [2289] nM
- Compound of Formula (I) Concentration, Cartilage ([2]; 30 μg/knee, Day 179): [228] nM
- Total Amount Recovered ([2]; 30 μg/knee, Day 179): 2109 ng
- concentration at 45 day ([2]; male, beagle, dog, bone, other: intra-articular, 3 μg/knee, Day 45, read-out: Compound of Formula (I) Concentration, Bone): 11.2 ng/g
- concentration at 45 day ([2]; male, beagle, dog, bone, other: intra-articular, 30 μg/knee, Day 45, read-out: Compound of Formula (I) Concentration, Bone): 586 ng/g
- concentration at 91 day ([2]; male, beagle, dog, bone, other: intra-articular, 30 μg/knee, Day 91, read-out: Compound of Formula (I) Concentration, Bone): 118 ng/g
- concentration at 179 day ([2]; male, beagle, dog, bone, other: intra-articular, 30 μg/knee, Day 179, read-out: Compound of Formula (I) Concentration, Bone): 1160 ng/g
- concentration at 45 day ([2]; male, beagle, dog, cartilage, other: intra-articular, 3 μg/knee, Day 45, read-out: Compound of Formula (I) Concentration, Cartilage): 152 ng/g
- concentration at 91 day ([2]; male, beagle, dog, cartilage, other: intra-articular, 3 μg/knee, Day 91, read-out: Compound of Formula (I) Concentration, Cartilage): 37 ng/g
- concentration at 45 day ([2]; male, beagle, dog, cartilage, other: intra-articular, 30 μg/knee, Day 45, read-out: Compound of Formula (I) Concentration, Cartilage): 4520 ng/g
- concentration at 91 day ([2]; male, beagle, dog, cartilage, other: intra-articular, 30 μg/knee, Day 91, read-out: Compound of Formula (I) Concentration, Cartilage): 2330 ng/g
- concentration at 179 day ([2]; male, beagle, dog, cartilage, other: intra-articular, 30 μg/knee, Day 179, read-out: Compound of Formula (I) Concentration, Cartilage): 115 ng/g
- concentration at 15 min ([2]; male, beagle, plasma, other: intra-articular, dog, 15 min post-dose, 3 or 30 μg/knee, BQL): < 2000 ng/mL
- EC50 [3]: 2 nM
